In assay [1] the target is T1, KMT9 (Homo sapiens, UniProt Q9Y5N5).
T1 sequence (Q9Y5N5 1-214): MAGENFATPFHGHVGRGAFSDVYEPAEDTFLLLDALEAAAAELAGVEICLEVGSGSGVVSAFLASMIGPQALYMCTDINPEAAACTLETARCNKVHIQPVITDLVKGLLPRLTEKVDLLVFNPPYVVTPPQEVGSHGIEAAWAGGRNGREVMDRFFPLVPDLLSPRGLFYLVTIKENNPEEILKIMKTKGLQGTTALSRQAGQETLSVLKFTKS
T1 sequence (Q9UI30 1-120 isoform Q9UI30-2 partner): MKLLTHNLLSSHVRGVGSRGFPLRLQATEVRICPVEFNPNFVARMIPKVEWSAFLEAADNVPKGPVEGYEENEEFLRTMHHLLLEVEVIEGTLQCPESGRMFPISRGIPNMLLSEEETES
The assay is described as follows: KMT9 methyltransferase inhibition assay, 3H-SAM scintillation (entries 1-154). Format: biochemical. The conditions noted are these: entries 1-154: 3H-SAM assay, 25 nM KMT9, 5 μM ETF1. Summed up: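 Tritium transfer from SAM (0.3 μM 3H-SAM, 0.7 μM unlabelled, final) to 5 μM ETF1 fragment by 25 nM KMT9 was measured after 2 h at 30° C, pH 8.5. Precipitated peptide was collected on filters and scintillation counted; IC50 came from a four-parameter fit of inhibition normalised to controls.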

For assay [2], the target named is T1, KMT9. The assay is described as follows: Microscale thermophoresis (MST) KMT9 binding. The conditions noted are these: microscale thermophoresis, His-tag labelled KMT9 (20 nM); read-out: MST. Summed up: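 Kd from microscale thermophoresis: compound series against 20 nM His-KMT9 labelled via RED-Tris-NTA, buffer 25 mM HEPES (pH 7.5)/100 mM NaCl/1 mM DTT/0.05% Tween, 40% MST power, 100% LED. Reported as classes: A ≤10 nM, B >10–100 nM, C >100–1000 nM, D >1000 nM.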
For orientation: In MST a laser heats a spot of the sample, and binding alters the fluorescence response.

Assay [3] has as its target T1, KMT9. The assay is described as follows: KMT9 thermal shift assay (SyproOrange). Format: binding. The conditions noted are these: ΔTm; 500 µM compound, 2 μM KMT9, 5X SO; read-out: Thermal shift. Put shortly:
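ΔTm versus DMSO-only control is reported in bins (>20 K, 15–20 K, 10–15 K, ≤10 K), using Tm from Boltzmann sigmoidal fits of SyproOrange melt curves. KMT9 with compound in pH 8.5 BTP buffer containing MgCl2 and DTT was preincubated at 25° C, then ramped 1° C per 15 s up to 95° C.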

The results in this text go back to patent publication US20250188110A1, “SPECIFIC SMALL MOLECULE INHIBITORS THAT BLOCK KMT9 METHYLTRANSFERASE ACTIVITY AND FUNCTION” (ALBERT-LUDWIGS-UNIVERSITÄT FREIBURG, priority 2021, published 2025).

Each structure is given as a SMILES string.

In general, IC50 refers to the concentration at which inhibition is half-maximal. At KMT9 [1], `Cc1cn([C@@H]2C[C@H](CNCCCNCCc3ccccc3)[C@@H](O)[C@H]2O)c2ncnc(N)c12` [467 (341), (1R,2S,3R,5R)-3-(4-Amino-5-methyl-7H-pyrrolo[2,3-d]pyrimidin-7-yl)-5-(((3-(phenethylamino)propyl)amino)methyl) cyclopentane-1,2-diol] gave an IC50 of 1000 to 10000 nM. Also, the Kd on KMT9 [2] is 100 to 1000 nM. Further, on KMT9 [3], the ΔTm at 500 µM fell in the range of 10 to 15 °C.
At KMT9 [1], `Nc1ncnc2c1c(C1CC1)cn2[C@@H]1C[C@H](CNCCCNCCc2ccccc2)[C@@H](O)[C@H]1O` [468 (342), (1R,2S,3R,5R)-3-(4-Amino-5-cyclopropyl-7H-pyrrolo[2,3-d]pyrimidin-7-yl)-5-(((3-(phenethylamino)propyl)amino)methyl) cyclopentane-1,2-diol] yielded an IC50 of 1000 to 10000 nM. For the same compound, the Kd at KMT9 [2] fell in the range of 100 to 1000 nM. Also, on KMT9 [3], the ΔTm at 500 µM was 15 to 20 °C.
For `CCC(C)c1cn([C@@H]2C[C@H](CNCCCNCCc3ccccc3)[C@@H](O)[C@H]2O)c2ncnc(N)c12` (stereo partly drawn) [469 (343), (1R,2S,3R,5R)-3-(4-Amino-5-(sec-butyl)-7H-pyrrolo[2,3-d]pyrimidin-7-yl)-5-(((3-(phenethylamino)propyl)amino)methyl) cyclopentane-1,2-diol] the same measures were 1000 to 10000 nM, 100 to 1000 nM and 10 to 15 °C.
Turning to `Nc1ncnc2c1c(-c1ccncc1)cn2[C@@H]1C[C@H](CNCCCNCCc2ccccc2)[C@@H](O)[C@H]1O` [470 (344), (1R,2S,3R,5R)-3-(4-Amino-5-(pyridin-4-yl)-7H-pyrrolo[2,3-d]pyrimidin-7-yl)-5-(((3-(phenethylamino)propyl)amino)methyl) cyclopentane-1,2-diol], at KMT9 [1], the IC50 fell in the range of 100 to 1000 nM. Further, at KMT9 [2], the Kd is 100 to 1000 nM. Besides, the ΔTm at 500 µM on KMT9 [3] is 10 to 15 °C.
For `Nc1ncnc2c1c(-c1ccncn1)cn2[C@@H]1C[C@H](CNCCCNCCc2ccccc2)[C@@H](O)[C@H]1O` [471 (345), (1R,2S,3R,5R)-3-(4-Amino-5-(pyrimidin-4-yl)-7H-pyrrolo[2,3-d]pyrimidin-7-yl)-5-(((3-(phenethylamino)propyl)amino)methyl) cyclopentane-1,2-diol], at KMT9 [1], the IC50 lay within 100 to 1000 nM. Moreover, the Kd on KMT9 [2] was in the range of 100 to 1000 nM. In addition, the ΔTm at 500 µM on KMT9 [3] fell in the range of 15 to 20 °C.
Compound `Nc1ncnc2c1c(-c1ccn[nH]1)cn2[C@@H]1C[C@H](CNCCCNCCc2ccccc2)[C@@H](O)[C@H]1O` [472 (346), (1R,2S,3R,5R)-3-(4-Amino-5-(1H-pyrazol-5-yl)-7H-pyrrolo[2,3-d]pyrimidin-7-yl)-5-(((3-(phenethylamino)propyl)amino)methyl) cyclopentane-1,2-diol] yielded an IC50 at KMT9 [1] of 100 to 1000 nM. Moreover, on KMT9 [2], the Kd fell in the range of 10 to 100 nM. Further, on KMT9 [3], the ΔTm at 500 µM was in the range of 15 to 20 °C.
`Nc1ncnc2c1c(-c1ncc[nH]1)cn2[C@@H]1C[C@H](CNCCCNCCc2ccccc2)[C@@H](O)[C@H]1O` [473 (347), (1R,2S,3R,5R)-3-(4-Amino-5-(1H-imidazol-2-yl)-7H-pyrrolo[2,3-d]pyrimidin-7-yl)-5-(((3-(phenethylamino)propyl)amino)methyl) cyclopentane-1,2-diol] displayed a 50% inhibitory concentration (IC50) on KMT9 [1] of 100 to 1000 nM. Besides, the Kd at KMT9 [2] was in the range of 10 to 100 nM. In addition, the ΔTm at 500 µM at KMT9 [3] fell in the range of 15 to 20 °C.
Compound `Nc1ncnc2c1c(-c1nccs1)cn2[C@@H]1C[C@H](CNCCCNCCc2ccccc2)[C@@H](O)[C@H]1O` [474 (348), (1R,2S,3R,5R)-3-(4-Amino-5-(thiazol-2-yl)-7H-pyrrolo[2,3-d]pyrimidin-7-yl)-5-(((3-(phenethylamino)propyl)amino)methyl) cyclopentane-1,2-diol] returned an IC50 against KMT9 [1] of 1000 to 10000 nM. Further, the Kd at KMT9 [2] lay within 10 to 100 nM. At KMT9 [3], the ΔTm at 500 µM is 15 to 20 °C.
On the same counts, the results for `Nc1ncnc2c1c(-c1ncn[nH]1)cn2[C@@H]1C[C@H](CNCCCNCCc2ccccc2)[C@@H](O)[C@H]1O` [475 (349), (1R,2S,3R,5R)-3-(4-amino-5-(1H-1,2,4-triazol-5-yl)-7H-pyrrolo[2,3-d]pyrimidin-7-yl)-5-(((3-(phenethylamino)propyl)amino)methyl) cyclopentane-1,2-diol] are 100 to 1000 nM, 10 to 100 nM and 15 to 20 °C.
In turn, `Cn1ccc(-c2cn([C@@H]3C[C@H](CNCCCNCCc4ccccc4)[C@@H](O)[C@H]3O)c3ncnc(N)c23)n1` [476 (350), (1R,2S,3R,5R)-3-(4-Amino-5-(1-methyl-1H-pyrazol-3-yl)-7H-pyrrolo[2,3-d]pyrimidin-7-yl)-5-(((3-(phenethylamino)propyl)amino)methyl) cyclopentane-1,2-diol] had a half-inhibitory concentration (IC50) on KMT9 [1] of 100 to 1000 nM. Moreover, the Kd on KMT9 [2] lay within 100 to 1000 nM. The ΔTm at 500 µM on KMT9 [3] fell in the range of 15 to 20 °C.
Take `Nc1ncnc2c1c(-c1ccn(Cc3ccccc3)n1)cn2[C@@H]1C[C@H](CNCCCNCCc2ccccc2)[C@@H](O)[C@H]1O` [477 (351), (1R,2S,3R,5R)-3-(4-Amino-5-(1-benzyl-1H-pyrazol-3-yl)-7H-pyrrolo[2,3-d]pyrimidin-7-yl)-5-(((3-(phenethylamino)propyl)amino)methyl) cyclopentane-1,2-diol]: on KMT9 [1], the IC50 was in the range of 1000 to 10000 nM. The Kd on KMT9 [2] fell in the range of 10 to 100 nM. In addition, at KMT9 [3], the ΔTm at 500 µM was in the range of 15 to 20 °C.
For `Cn1cc(-c2cn([C@@H]3C[C@H](CNCCCNCCc4ccccc4)[C@@H](O)[C@H]3O)c3ncnc(N)c23)cn1` [478 (352), (1R,2S,3R,5R)-3-(4-Amino-5-(1-methyl-1H-pyrazol-4-yl)-7H-pyrrolo[2,3-d]pyrimidin-7-yl)-5-(((3-(phenethylamino)propyl)amino)methyl) cyclopentane-1,2-diol] the same measures were 1000 to 10000 nM, 10 to 100 nM and 15 to 20 °C.
`Nc1ncnc2c1c(C1CCOCC1)cn2[C@@H]1C[C@H](CNCCCNCCc2ccccc2)[C@@H](O)[C@H]1O` [479 (353), (1R,2S,3R,5R)-3-(4-Amino-5-(tetrahydro-2H-pyran-4-yl)-7H-pyrrolo[2,3-d]pyrimidin-7-yl)-5-(((3-(phenethylamino)propyl)amino)methyl) cyclopentane-1,2-diol] displayed an IC50 against KMT9 [1] of 1000 to 10000 nM. In addition, at KMT9 [2], the Kd lay within 100 to 1000 nM. Also, at KMT9 [3], the ΔTm at 500 µM lay in the range of 10 to 15 °C.
For `CN1CCC(c2cn([C@@H]3C[C@H](CNCCCNCCc4ccccc4)[C@@H](O)[C@H]3O)c3ncnc(N)c23)CC1` [480 (354), (1R,2S,3R,5R)-3-(4-Amino-5-(1-methylpiperidin-4-yl)-7H-pyrrolo[2,3-d]pyrimidin-7-yl)-5-(((3-(phenethylamino)propyl)amino)methyl) cyclopentane-1,2-diol] the same measures were 1000 to 10000 nM, > 1000 nM and ≤ 10 °C.
On KMT9 [1], `CC(=O)N1CCC(c2cn([C@@H]3C[C@H](CNCCCNCCc4ccccc4)[C@@H](O)[C@H]3O)c3ncnc(N)c23)CC1` [481 (355), 1-(4-(4-Amino-7-((1R,2S,3R,4R)-2,3-dihydroxy-4-(((3-(phenethylamino)propyl)amino)methyl)cyclopentyl)-7H-pyrrolo[2,3-d]pyrimidin-5-yl)piperidin-1-yl)ethan-1-one] yielded an IC50 of 1000 to 10000 nM. Besides, on KMT9 [2], the Kd is 100 to 1000 nM. Moreover, the ΔTm at 500 µM on KMT9 [3] was in the range of 10 to 15 °C.
On KMT9 [1], `CN1CC=C(c2cn([C@@H]3C[C@H](CNCCCNCCc4ccccc4)[C@@H](O)[C@H]3O)c3ncnc(N)c23)CC1` [482 (356), (1R,2S,3R,5R)-3-(4-amino-5-(1-methyl-1,2,3,6-tetrahydropyridin-4-yl)-7H-pyrrolo[2,3-d]pyrimidin-7-yl)-5-(((3-(phenethylamino)propyl)amino)methyl) cyclopentane-1,2-diol] showed a half-maximal inhibitory concentration (IC50) of 1000 to 10000 nM. In addition, the Kd on KMT9 [2] is > 1000 nM. For the same compound, the ΔTm at 500 µM on KMT9 [3] lay in the range of 10 to 15 °C.
On the same counts, the results for `N#Cc1cn([C@@H]2C[C@H](CNCCCNCCc3ccccc3)[C@@H](O)[C@H]2O)c2ncnc(N)c12` [483 (357), 4-Amino-7-((1R,2S,3R,4R)-2,3-dihydroxy-4-(((3-(phenethylamino)propyl)amino)methyl)cyclopentyl)-7H-pyrrolo[2,3-d]pyrimidine-5-carbonitrile] are 1000 to 10000 nM, 100 to 1000 nM and 10 to 15 °C.
Compound `Nc1ncnc2c1c(Br)cn2[C@@H]1C[C@H](CN2CC(CNCCc3ccccc3)C2)[C@@H](O)[C@H]1O` [484 (358), (1R,2S,3R,5R)-3-(4-Amino-5-bromo-7H-pyrrolo[2,3-d]pyrimidin-7-yl)-5-((3-((phenethylamino)methyl)azetidin-1-yl)methyl) cyclopentane-1,2-diol] displayed an IC50 against KMT9 [1] of 100 to 1000 nM. Moreover, on KMT9 [2], the Kd was in the range of 10 to 100 nM. In addition, the ΔTm at 500 µM on KMT9 [3] fell in the range of 15 to 20 °C.
